Source: patent publication US20060167109A1, “Methods of reducing rhinovirus contagion and related compositions” (priority 2002, published 2006)
≈ marks a conversion by molar mass, not a printed value. Where “and” joins values, the source holds several entries; their conditions need not be identical. Equal values may be shown once. Read-outs that look alike come from different tables or passages of the source.

What was measured:
[1] = Rat tissue distribution studies; format: in vivo; settings: estimated
Description: A 400 mg dose of pleconaril maintains antiviral concentrations at or above the concentration that inhibits 90% of the protoype HRV serotypes (90% Minimal Inhibitory Concentration or mic90) for a significant portion of the dosing interval after the first dose of pleconaril. A nasal tissue to plasma concentration ratio of five was estimated for pleconaril from rat tissue distribution studies.

HRV3 [2] = assay: Low pH inactivation; format: cell-based, human rhinovirus; settings: 2 μM, pH 5.2, FIG. 4
Description: As a second indication of the direct interaction of the drug with the virion capsid, an experiment was conducted to examine the ability of pleconaril to protect HRV3 from low pH inactivation.
Approximately […] plaque forming units (PFU) of virus were incubated with 0.5% DMSO or 2 μM pleconaril (in 0.5% DMSO) overnight at 4° C. For HRV3, samples were diluted into sodium acetate buffer (1 M, pH 5.2 or pH 7.0) for 30 minutes on ice followed by neutralization with 2 volumes of 1M Tris-HCl, pH 8.0. All samples were extracted twice with chloroform prior to titration in the viral cytopathic effect assay on HeLa cells (see below).

[3] = test system: mumps virus, strain Enders (Mumps); assay: Virus cytopathic effect assay for other viruses; format: cell-based; settings: Mumps orthorubulavirus
Description: (§1) The sensitivity of non-picornaviruses to pleconaril was determined in virus cytopathic effect assays similar to the HRV assay for the following viruses: respiratory syncytial virus, strain Long (RSV-A) and herpes simplex virus type II, strain Curtis (HSV-2) on HEp2 cells; influenza virus, strain WSN (FLUA) on MDBK cells; dengue virus type 2, strain New Guinea (DEN-2), and measles virus, strain Edmonston (MeV) on Vero cells; human adenovirus, type 5 (HAdV-5) on HeLa cells (at 33° C.); human coronavirus, strain 229E (Corona) on MRC-5 cells (at 33° C.); and mumps virus, strain Enders (Mumps), reovirus type 1, strain Lang (REOV-1), and parainfluenza virus type 3, strain C243 (HPIV-3) on LLC-MK2d cells. All specificity assays were performed at 37° C. and 5% CO2 except where noted above.

[4] = test system: human adenovirus, type 5 (HAdV-5); assay: Virus cytopathic effect assay for other viruses; format: cell-based; settings: Human mastadenovirus C, HeLa
Description: as §1

[5] = test system: human coronavirus, strain 229E (Corona); assay: Virus cytopathic effect assay for other viruses; format: cell-based; settings: Human coronavirus 229E, MRC5; Corona on MRC-5 cells at 33° C.
Description: as §1

[6] = test system: respiratory syncytial virus, strain Long (RSV-A); assay: Virus cytopathic effect assay for other viruses; format: cell-based; settings: human respiratory syncytial virus, HEp-2
Description: as §1

[7] = test system: dengue virus type 2, strain New Guinea (DEN-2); assay: Virus cytopathic effect assay for other viruses; format: cell-based; settings: Vero
Description: as §1

[8] = test system: influenza virus, strain WSN (FLUA); assay: Virus cytopathic effect assay for other viruses; format: cell-based; settings: unidentified influenza virus, MDBK
Description: as §1

[9] = test system: herpes simplex virus type II, strain Curtis (HSV-2); assay: Virus cytopathic effect assay for other viruses; format: cell-based; settings: Human alphaherpesvirus 2, HEp-2
Description: as §1

[10] = test system: parainfluenza virus type 3, strain C243 (HPIV-3); assay: Virus cytopathic effect assay for other viruses; format: cell-based; settings: Human respirovirus 3
Description: as §1

[11] = test system: measles virus, strain Edmonston (MeV); assay: Virus cytopathic effect assay for other viruses; format: cell-based; settings: Measles morbillivirus, Vero
Description: as §1

[12] = test system: reovirus type 1, strain Lang (REOV-1); assay: Virus cytopathic effect assay for other viruses; format: cell-based; settings: Mammalian orthoreovirus 1
Description: as §1

HRV3 [13] = assay: RNA replication, viral RNA synthesis; format: cell-based, human rhinovirus; settings: 2 μM, pleconaril-treated cells
Description: Immediately after uncoating, viral gene expression (protein translation) and viral RNA replication begin. However, uncoating must occur before either of these two processes can be initiated. In experiments conducted similarly to the uncoating experiment described above, an experiment was conducted to measure viral RNA synthesis in the presence and absence of pleconaril. At the end of the 2 hours temperature shift, actinomycin D was added to the culture medium to inhibit cellular DNA-dependent RNA synthesis. After 2 hours in the presence of actinomycin D, no cellular RNA synthesis was detectable. At that time, ^3H-uridine was added to the medium and the incubation was allowed to proceed 2.5 hours (a total of 6.5 hours post-attachment). Total cellular RNA was then recovered, electrophoresed on an agarose-urea gel and visualized by fluorography.
HeLa cells in 6 well plates were infected at an MOI of 5 PFU/cell with 1 mL of HRV3 for 1 hour at room temperature in the presence or absence of 2 μM pleconaril. After virus attachment, the incubation was continued for an additional 2 hrs at 33° C. (HRV3). The inoculum was then removed and 3 mL/well of M199 medium with 5% FBS and 5 μg/mL of actinomycin D was added with 2 μM pleconaril or DMSO only (0.5% final concentration). The cells were returned to the incubator for 2 hours, at which time 300 μCi of ^3H-uridine (Amersham) was added per well. […]

101 serotypes of HRVs = assay: Spectrum of activity in HRV cytopathic effect assay
Description: HRV stocks were grown in HeLa (WIS) cells in 150 cm^2 flasks, frozen/thawed 3 times, aliquoted and stored frozen at −80° C. The virus inoculum to be used in the assay for each virus was determined as follows. HeLa (WIS) cells were seeded on 96-well tissue culture plates (Costar, 3598) at a density of 2.8×10^4 cells/well in M199 medium (Sigma) supplemented with 5% heat-inactivated newborn bovine serum. Twenty-four hours later, serial 0.5 log10 dilutions of each virus stock were plated in octuplicate onto the cells in complete M199 medium (5% heat-inactivated fetal bovine serum (FBS), 0.15 mM MgCl2, and 7.5 μg/mL diethylamino-dextran (DEAE-dextran)). The plates were incubated for 3 days at 33° C. in a humidified, 2.5% CO2 atmosphere, then fixed with 5% glutaraldehyde and stained with 0.1% crystal violet. After rinsing and drying, the optical density of the wells was read at a wavelength of 570 nm (OD570) on a Bio-Tek model EL-310 plate reader.

Aqueous solubility = format: physicochemical
[14] = Single dose oral pharmacokinetics in fed healthy young subjects; format: in vivo, human; settings: for half-life: po, 400 mg
[15] = human, plasma, fed healthy young subjects (N = 24), single oral dose 400 mg, mean

Which “nasal tissue to plasma concentration ratio” value [1] does the source give for Cc1cc(CCCOc2c(C)cc(-c3noc(C(F)(F)F)n3)cc2C)on1 [pleconaril, 3-[3,5-dimethyl-4-[3-(3-methyl-5-isoxazolyl)propoxy]phenyl]-5-(trifluoromethyl)-1,2,4-oxadiazole] here?
The value was “five”.

And the “protection from low pH inactivation” value (HRV3 [2])?
The value was “protect HRV3 from low pH-induced degradation”.

And the IC50 [3]?
Its IC50 is over 12.5 µM.

What about the IC50 [4] of the same compound?
Its IC50 is over 12.5 µM.

What about the IC50 [5] of the same compound?
Its IC50 is over 12.5 µM.

What about the IC50 [6] of the same compound?
Its IC50 is over 12.5 µM.

And the IC50 [7]?
The IC50 was over 12.5 µM.

And the IC50 [8]?
Its IC50 is over 12.5 µM.

What about the IC50 [9] of the same compound?
Its IC50 is over 12.5 µM.

What about the IC50 [10] of the same compound?
The IC50 was over 12.5 µM.

What about the IC50 [11] of the same compound?
The IC50 was over 12.5 µM.

What about the IC50 [12] of the same compound?
The IC50 was over 12.5 µM.

And the “HRV3 RNA synthesis” value (HRV3 [13])?
Its value is “completely blocked”.

What about the MIC50 (101 serotypes of HRVs; Human rhinovirus sp., read-out: MIC50 (concentration inhibiting 50% of the HRV serotypes)) of the same compound?
The MIC50 was ≤ 0.2 µM and ≤ 0.08 µg/mL.

What about the MIC80 (101 serotypes of HRVs; Human rhinovirus sp., read-out: MIC80 (concentration inhibiting 80% of the HRV serotypes)) of the same compound?
The MIC80 was ≤ 0.78 µM and ≤ 0.3 µg/mL.

And the MIC90 (101 serotypes of HRVs; Human rhinovirus sp., read-out: MIC90 (concentration inhibiting 90% of the HRV serotypes))?
The MIC90 was ≤ 4.3 µM and ≤ 1.6 µg/mL.

And the “HRVs whose replication was inhibited” value (101 serotypes of HRVs; of 101 prototypic serotypes)?
Its value is 93 of 101.

What about the solubility (Aqueous solubility) of the same compound?
Its solubility is 0.02 µg/mL (≈ 0.0524 µM).

And the CL/F ([14]; fed healthy young subjects (N = 24), single oral dose 400 mg, mean)?
The CL/F was 16.8 L/h.

What about the alpha half-life ([14]; following oral absorption, alpha disposition phase) of the same compound?
Its alpha half-life is about 2.8 h.

What about the half-life ([14]; human, plasma, fed healthy young subjects (N = 24), single oral dose 400 mg, mean, read-out: T1/2 (converted)) of the same compound?
The half-life was 186 h.

What about the half-life ([14]; human, plasma, following oral absorption, alpha disposition phase, read-out: alpha half-life) of the same compound?
Its half-life is 2 to 3 h.

And the half-life ([14]; human, plasma, following oral absorption, read-out: terminal half-life (converted))?
Its half-life is about 180 h.

And the AUC(0-inf) [14, 15]?
The AUC(0-inf) was 29200 ng·h/mL.

And the Cmax [14, 15]?
The Cmax was 2300 ng/mL.

What about the Tmax [14, 15] of the same compound?
The Tmax was 3 h.

What about the Vd/F ([14]; human, plasma, fed healthy young subjects (N = 24), single oral dose 400 mg, mean, read-out: Vz/F) of the same compound?
Its Vd/F is 4110 L.
